Test results as given in patent publication US20240366560A1, “SMALL MOLECULE TREATMENT OF FATTY LIVER DISEASE AND HCC” (ScandiEdge Therapeutics AB, priority 2021, published 2024).

How the values were obtained:
Sprague Dawley male rats [1] = test: In vivo biosafety study: micronucleus frequencies (MNPCEs) in blood; set-up: species or system rat; conditions: 30 mg/kg oral, 7 days, CHOW, p>0.05
Procedure: (§1) In vivo biosafety studies. Healthy Sprague Dawley male rats (12 weeks old, 250-280 g) were obtained from Atatürk University Experimental Research Center (ATADEM, Erzurum Turkey) and housed under standard environmental conditions (temperature 20° C.-25° C., humidity 50±20% and 12-hour light/dark diurnal cycle). Food and water were available ad libitum. Rats were randomly separated into one control group and two experimental groups (30 mg/kg/day BX-912 or JNK-IN-5A, n=5). BX-912 and JNK-IN-5A were dissolved in DMSO and orally administrated using oral gavage for 7 days. The control group were received the same amount of vehicle solution only.
(§2) After 7 days, rats were anaesthetized, and blood samples were collected from the abdominal aorta for biochemical and haematological analysis. The plasma was separated and stored at −80° C. for further analysis. Major organs such as heart, kidney, liver, muscle, adipose, intestine (duodenum, ileum, jejunum), pancreas, colon, and stomach were collected from all the animals for further analysis. Selected organs were fixed in 10% neutral buffered formalin for histopathological examination.
To evaluate the potential toxicity of BX-912 and JNK-IN-5A in animals, three groups of 12-week-old rats (n=5) were raised. The first group was fed with CHOW (Ctrl) for seven days. The second group was fed with CHOW plus BX-912 (30 mg/kg) for seven days. […]

Sprague Dawley male rats [2] = test: In vivo biosafety study: immunohistochemical 8-OH-dG examination of liver; set-up: species or system rat; conditions: 30 mg/kg oral, 7 days, CHOW
Procedure: as §1, §2
Immunohistochemical examination. After deparaffinization, the slides were immersed in antigen retrieval solution (pH 6.0) and heated in microwave for 15 min to unmask the antigens. The sections were then dipped in 3% H2O2 for 10 min to block endogenous peroxidase activity. […]

HSD-fed rats = test: In vivo efficacy study in HSD-fed steatosis rats: histopathological examination; conditions: 30 mg/kg; for degeneration in renal tubule epithelium / fattening in the parenchyma cells of pancreas tissues / degeneration in hepatocytes in liver tissues / steatosis in hepatocytes in liver tissues: HSD 3w group: severe; for degeneration in hepatocytes in liver tissues / steatosis in hepatocytes in liver tissues: FIG. 3
Source text: In vivo efficacy studies. After 1-week acclimation period, rats were randomly separated into two groups: control group (n=5) and high sucrose group (n=20). The control group was fed with a standard diet while the others consumed high sucrose diet (HSD). Sucrose was purchased from Sigma Chemical Co. (St Louis, MO, USA) and supplied at the dose of 10% in the drink water for two weeks.
After 2 weeks, five rats in the HSD group were randomly sacrificed for conformation of NAFLD model. Then, the remaining rats in the HSD group were separated into three sub-groups (n=5): HSD group, HSD plus BX-912 group and HSD plus JNK-IN-5A group. BX-912 and JNK-IN-5A were dissolved in DMSO and were orally administrated using oral gavage for one week (30 mg/kg/day). The HSD group were treated with vehicle solution only.
At the end of the experiment, rats were sacrificed after being anesthetized. Blood samples were collected from the abdominal aorta and centrifuged at 8000 rpm for 15 min at 4° C. The plasma was separated and stored at −80° C. until further analysis. Other internal organs, including the heart, adipose tissues, liver, kidney, muscle, intestine (duodenum, ileum, jejunum), pancreas, colon and stomach were immediately removed and then snap frozen in liquid nitrogen and stored at −80° C.; the liver was also fixed in 10% formaldehyde for histopathological examination.
Histopathological examination. The liver tissues were fixed in 10% buffered formaldehyde solution. After fixation, the tissues were passed through graded alcohol and xylene series and embedded in paraffin blocks. 5 micrometer thick sections were taken serially from the paraffin blocks. Histopathological changes were evaluated by performing hematoxylin eosin staining on the sections taken. Sections were evaluated according to histopathological findings as none (−), mild (+), moderate (++) and severe (+++).
Next, the efficacy of these two drugs in a steatosis rat study was investigated by feeding the animals with HSD. Five groups of 12-week-old rats (n=5) were raised. For two weeks, the first group was fed with CHOW and the remaining four groups were fed with HSD. […] One of the remaining groups was fed with HSD (HSD 3w) for seven days. Another one of the remaining groups was fed with HSD plus BX-912 (30 mg/kg) for seven days. The last one of the remaining groups was fed with HSD plus JNK-IN-5A (30 mg/kg) for seven days. After said seven days, all three groups were sacrificed, and tissue samples from the liver and other major organs and blood samples were collected for efficacy examination. A histopathological and immunohistochemical analysis was performed on the liver samples and other major organs obtained from the three rat groups.

| SMILES | frequencies of MNPCEs compared to Ctrl animals (Sprague Dawley male rats [1]) | 8-OH-dG expression in liver tissues (IHC) (Sprague Dawley male rats [2]) | toxic effect on small intestine, large intestine, stomach, heart and muscle tissues (HSD-fed rats; HSD-fed rats, 7 days) | degeneration in renal tubule epithelium (HSD-fed rats; HSD-fed rats, 7 days) | fattening in the parenchyma cells of pancreas tissues (HSD-fed rats; HSD-fed rats, 7 days) | degeneration in hepatocytes in liver tissues (HSD-fed rats; HSD-fed rats, 7 days) | steatosis in hepatocytes in liver tissues (HSD-fed rats; HSD-fed rats, 7 days) | toxic effect on small intestine, large intestine, stomach, heart and muscle tissues (HSD-fed rats; rat, in vivo) |
| --- | --- | --- | --- | --- | --- | --- | --- | --- |
| N#Cc1c(NC(=O)c2cccc3ccccc23)sc2c1CCCC2 [JNK-IN-5A, N-(3-cyano-4,5,6,7-tetrahydrobenzo [b]thien-2-yl)-1-naphthalenecarboxamide] | not statistically different | negative | no toxic effect | mild | mild | mild | mild |  |
| O=C(Nc1cccc(Nc2ncc(Br)c(NCCc3cnc[nH]3)n2)c1)N1CCCC1 [BX-912, N-[3-[[5-bromo-4-[[2-(1H-imidazol-5-yl)ethyl]amino]-2-pyrimidinyl]amino]phenyl]-1-pyrrolidinecarboxamide] | not statistically different | negative |  | mild | mild | Mild | moderate | no toxic effect |
